Measurements published in patent US8889671B2, “Compounds and methods for treating bacterial infections” (AstraZeneca AB, priority 2013, dated 2014).
pIC50: −log10 of the molar value. ≈ marks a conversion by molar mass, not a printed value. Read-outs that look alike come from different tables or passages of the source.

Columns and labels:
[1] = target: Escherichia coli DNA gyrase A/B tetramer (Escherichia coli (strain K12), UniProt P0AES4+P0AES6); assay: DNA gyrase supercoiling activity fluorescence polarisation assay; format: biochemical; conditions: Eco Gyr FP Mean IC50, E. coli DNA gyrase supercoiling, 0.3 mM ATP
Outline: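 IC50 derived by nonlinear regression from BODIPY-FL fluorescence anisotropy, read 60 min after quenching with labelled triplex-forming probe (pH 3.5). Reaction: 5 nM gyrase tetramer, 130 micrograms/mL relaxed plasmid, 0.3 mM ATP, 4 mM MgCl2, pH 7.5, typically 30 min at ambient temperature, 5-10 compound concentrations.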

[2] = tested on: Streptococcus pyogenes ATCC12384; assay: Modal MIC against S. pyogenes ATCC12384; format: cell-based
Procedure: The MIC against S. pyogenes ATCC12384 was determined using the broth microdilution method following CLSI guidelines. Three individual determinations were performed for each strain and the Modal MIC was used for all PK/PD calculations. All animal experiments were performed under UK Home Office Licensure with local ethical committee clearance. All experiments were performed by technicians who have completed parts 1, 2 and 3 of the Home Office Personal License course and hold current personal licenses.

[3] = Plasma pharmacokinetics in S. pyogenes infected mice; format: in vivo; conditions: mouse, ip, with ABT
Procedure: Groups of satellite mice infected with S. pyogenes, as described above, were used for determining plasma concentrations. Dosing started 2 hours after infection and whole blood samples were taken at 0.5, 1, 2, 4, 6, 8, 12 and 24 h. Mice from the satellite PK study were euthanized by inhaled 5% isofluorane at specified time points post-treatment, mice were bled immediately by cardiac puncture. Heparinised blood samples were separated by centrifugation for five minutes at 13200 rpm. Plasma samples were stored at minus 80° C. before transfer to the client for analysis.
For the PK arm of the study, 3 mice per time point per unit dose were used. Due to unintended changes in the final work order, the 80 and 160 mg/kg dosing groups initially were administered Example 5 without prior treatment with aminobenzotriazole. Once this was realised, the remaining mice were re-distributed across the dosing groups and group size was reduced to two mice per time point.
Biological samples containing Example 5 were extracted using protein precipitation. To one volume of sample, 5 volumes of acetonitrile containing the internal standard (Glyburide) were added. The mixture was then mixed and the plate was centrifuged at 3200 rpm for 5 min. A 200 μL volume of the supernatant was dried down and, reconstituted in mobile phase and the mixture was injected onto liquid chromatography-mass spectrometry (LC-MS). A Sciex API 4000, controlled by Analyst v1.4.2, was used for the acquisition of the data and the quantification of Example 5.
The plasma profile for each dose group was obtained by calculating the average plasma concentration of compound in each of the two to three animals per time point. The area under the plasma concentration time curve from zero to infinity (AUC); maximum plasma drug concentration (Cmax); time to reach maximum concentration (tmax); and plasma half-life (t1/2) for each dose group was determined by non-compartmental analysis (WinNonLin 5.2, Pharsight). The non-compartmental Model 200 was used in the analysis.

[4] = tested on: Burkholderia cepacia; assay: In vitro antibacterial activity of Example 5 (MIC); format: cell-based
[5] = tested on: Citrobacter freundii; assay: In vitro antibacterial activity of Example 5 (MIC); format: cell-based
[6] = tested on: Enterobacter aerogenes; assay: In vitro antibacterial activity of Example 5 (MIC); format: cell-based; conditions: Klebsiella aerogenes
[7] = tested on: Enterococcus faecalis; assay: In vitro antibacterial activity of Example 5 (MIC); format: cell-based
[8] = tested on: Haemophilus influenzae; assay: In vitro antibacterial activity of Example 5 (MIC); format: cell-based
[9] = tested on: Klebsiella pneumoniae; assay: In vitro antibacterial activity of Example 5 (MIC); format: cell-based
[10] = tested on: Moraxella catarrhalis; assay: In vitro antibacterial activity of Example 5 (MIC); format: cell-based; conditions: ATCC43617; Moraxella catarrhalis (ATCC 43617)
[11] = tested on: Staphylococcus haemolyticus; assay: In vitro antibacterial activity of Example 5 (MIC); format: cell-based
[12] = tested on: Streptococcus pneumoniae; assay: In vitro antibacterial activity of Example 5 (MIC); format: cell-based
[13] = tested on: Propionibacterium acnes; assay: In vitro antibacterial activity of Example 5 against anaerobes (MIC, agar dilution); format: cell-based; conditions: Cutibacterium acnes
[14] = tested on: Finegoldia magna; assay: as above; format: cell-based; conditions: ATCC53516; Finegoldia magna (ATCC 53516)
[15] = tested on: Bacteroides thetaiotaomicron; assay: as above; format: cell-based
[16] = tested on: Bacteroides fragilis; assay: as above; format: cell-based
[17] = tested on: Bacillus subtilis; assay: In vitro antibacterial activity of Example 5 (MIC); format: cell-based; conditions: 11 strains of Bacillus subtilis
[18] = tested on: B. cereus; assay: microbe, parasite or virus in culture; format: cell-based; conditions: Bacillus cereus
[19] = tested on: S. pyogenes ARC838; assay: Emergence of resistance with serial passage; format: cell-based, Streptococcus pyogenes; conditions: after twenty passages with Example 5, S. pyogenes ARC838

**Q.** With `C[C@@H]1CN2c3c(cc4c(N5C(=O)OC[C@@H]5C)noc4c3F)CC3(C(=O)NC(=O)NC3=O)[C@H]2[C@H](C)O1` [Example 5, (2R,4S,4aS)-11-Fluoro-2,4-dimethyl-8-[(4S)-4-methyl-2-oxo-1,3-oxazolidin-3-yl]-1,2,4,4a-tetrahydro-2′H,6H-spiro[1,4-oxazino[4,3-a][1,2]oxazolo[4,5-g]quinoline-5,5′-pyrimidine]-2′,4′,6′(1′H,3′H)-trione] as the compound, how does the pIC50 [1] read?
**A.** 6.77

**Q.** What about the MIC [2] of the same compound?
**A.** 0.125 µg/mL (≈ 0.256 µM)

**Q.** What about the AUC(0-inf) ([3]; nominal dose 10 mg/kg (measured 4.1)) of the same compound?
**A.** 32.6 µg·h/mL

**Q.** What about the AUC(0-inf) ([3]; nominal dose 40 mg/kg (measured 25.4)) of the same compound?
**A.** 109 µg·h/mL

**Q.** And the AUC(0-inf) ([3]; nominal dose 60 mg/kg (measured 44.2))?
**A.** 153 µg·h/mL

**Q.** And the AUC(0-inf) ([3]; nominal dose 80 mg/kg (measured 66.2))?
**A.** 251 µg·h/mL

**Q.** What about the AUC(0-inf) ([3]; nominal dose 160 mg/kg (measured 142.0)) of the same compound?
**A.** 614 µg·h/mL

**Q.** What about the MIC [4] of the same compound?
**A.** 64 µg/mL (≈ 131 µM)

**Q.** What about the MIC [5] of the same compound?
**A.** 16 µg/mL (≈ 32.8 µM)

**Q.** And the MIC [6]?
**A.** 64 µg/mL (≈ 131 µM)

**Q.** And the MIC range ([7]; E. faecalis, n=51)?
**A.** 0.125 to 2 µg/mL

**Q.** And the MIC ([7]; Enterococcus faecalis)?
**A.** 2 µg/mL (≈ 4.1 µM)

**Q.** And the MIC ([7]; Enterococcus faecalis, ATCC29212, Enterococcus faecalis (ATCC 29212 CLSI QC Strain))?
**A.** 1 µg/mL (≈ 2.05 µM)

**Q.** And the MIC ([7]; Enterococcus faecalis, Enterococcus faecalis (Vancomycin-R, fluoroquinolone-R))?
**A.** 0.5 µg/mL (≈ 1.03 µM)

**Q.** And the MIC90 ([7]; Enterococcus faecalis, E. faecalis, n=51)?
**A.** 2 µg/mL (≈ 4.1 µM)

**Q.** What about the MIC ([8]; ATCC49619, Haemophilus influenzae (ATCC 49619 CLSI QC Strain)) of the same compound?
**A.** 0.25 µg/mL (≈ 0.513 µM)

**Q.** And the MIC90 ([8]; Haemophilus influenzae, n=29)?
**A.** 1 µg/mL (≈ 2.05 µM)

**Q.** What about the MIC range ([8]; Haemophilus influenzae, n=29) of the same compound?
**A.** 0.125 to 1 µg/mL

**Q.** What about the MIC ([9]; ATCC700603, Klebsiella pneumoniae (ATCC 700603 CLSI QC Strain)) of the same compound?
**A.** > 64 µg/mL

**Q.** And the MIC ([9]; Klebsiella pneumoniae (In vivo strain))?
**A.** 16 µg/mL (≈ 32.8 µM)

**Q.** And the MIC ([9]; Klebsiella pneumoniae (isolates not further specified))?
**A.** 64 µg/mL (≈ 131 µM)

**Q.** And the MIC [10]?
**A.** 0.125 µg/mL (≈ 0.256 µM)

**Q.** What about the MIC [11] of the same compound?
**A.** 0.25 µg/mL (≈ 0.513 µM)

**Q.** And the MIC90 ([11]; S. haemolyticus, n=21)?
**A.** 0.25 µg/mL (≈ 0.513 µM)

**Q.** And the MIC ([12]; Streptococcus pneumonia (Penicillin, -erythromycin- and fluoroquinolone-resistant))?
**A.** 0.25 µg/mL (≈ 0.513 µM)

**Q.** And the MIC ([12]; Streptococcus pneumoniae, ATCC49619, Streptococcus pneumonia (ATCC 49619, CLSI QC Strain), read-out: MIC)?
**A.** 0.25 µg/mL (≈ 0.513 µM)

**Q.** What about the MIC90 ([12]; Streptococcus pneumoniae, 100 strains of S. pneumoniae) of the same compound?
**A.** 0.25 µg/mL (≈ 0.513 µM)

**Q.** What about the MIC50 ([12]; Streptococcus pneumoniae, 100 strains of S. pneumoniae, read-out: MIC50 (MICH [sic])) of the same compound?
**A.** 0.125 µg/mL (≈ 0.256 µM)

**Q.** And the MIC ([12]; Streptococcus pneumoniae, Streptococcus pneumonia (In vivo Strain), read-out: MIC)?
**A.** 0.25 µg/mL (≈ 0.513 µM)

**Q.** And the MIC [13]?
**A.** 2 µg/mL (≈ 4.1 µM)

**Q.** What about the MIC [14] of the same compound?
**A.** < 0.03 µg/mL

**Q.** What about the MIC ([15]; ATCC29741, Bacteroides thetaiotaomicron (ATCC 29741, CLSI QC Strain)) of the same compound?
**A.** 8 µg/mL (≈ 16.4 µM)

**Q.** And the MIC ([15]; Bacteroides thetaiotaomicron)?
**A.** 8 µg/mL (≈ 16.4 µM)

**Q.** And the MIC ([16]; Bacteroides fragilis (isolates not further specified))?
**A.** 8 µg/mL (≈ 16.4 µM)

**Q.** What about the MIC ([16]; Bacteroides fragilis, ATCC25285, Bacteroides fragilis (ATCC 25285, CLSI QC Strain), read-out: MIC) of the same compound?
**A.** 2 µg/mL (≈ 4.1 µM)

**Q.** What about the MIC ([16]; Bacteroides fragilis, Bacteroides fragilis (isolates not further specified), read-out: MIC) of the same compound?
**A.** 4 µg/mL (≈ 8.21 µM)

**Q.** And the MIC90 [17]?
**A.** 0.5 µg/mL (≈ 1.03 µM)

**Q.** And the MIC90 [18]?
**A.** 0.5 µg/mL (≈ 1.03 µM)

**Q.** And the “decrease in susceptibility over the starting culture” value [19]?
**A.** 8 fold
